Data from patent US20250129370A1, “METHOD FOR REDUCING HEPATIC TRIGLYCERIDES” (ADAERATA, LIMITED PARTNERSHIP, priority 2022, published 2025).

What was measured:
[1] = tested on: PCSK7 mRNA; test: PCSK7 mRNA qPCR after miRNA overexpression in Huh7 cells; assay type: cell-based, human; conditions: Huh7, 48 hours following transfection, vs mock vector
Experimental: (§1) RNA was isolated from the cells with the TRIzol™ Reagent (Invitrogen, USA) according to the manufacturer's instructions. The RNA samples were treated with RNase-free DNase I (Fermentas, USA) to eliminate any possible DNA contamination. Reverse transcription was performed using the PrimeScript™ First Strand cDNA Synthesis Kit (Takara, Japan) following the manufacturer's protocol. Briefly, one unit of the DNase I enzyme, 1 μL of a buffer, and 1 μg of total RNA were incubated for 30 minutes at 37° C. Then, 1 μL of 50 mM EDTA was added for enzyme inactivation and incubated at 65° C. for 10 minutes. Subsequently, 5 μL of DNase-treated RNA was added to the mix of 0.5 μL of the reverse-transcriptase enzyme, 2 μL of the reverse-transcriptase buffer, and 1 μL of a random hexamer and incubated for 15 minutes at 37° C., followed by 5 seconds at 85° C. for enzyme inactivation. Stem-loop RT-qPCR method was applied for evaluating the expression of miRNAs (Kramer, 2011). […]
(§2) All the reactions were repeated in duplicates. Next, melt curves were analyzed, with the mean threshold cycles used for further analyses. The relative expressions of the miRNAs and PCSK7 to RNU48 small nuclear RNA and/or GAPDH and β2m were calculated, respectively, via the 2-ΔΔCt method. […]

[2] = tested on: PCSK7 mRNA; test: PCSK7 mRNA qPCR after miRNA overexpression in HEK293T cells; assay type: cell-based, human; conditions: 48 hours after transfection
Experimental: as §1, §2

[3] = tested on: human PC7; test: Western blot of overexpressed PC7 protein in Huh7 cells co-transfected with miRNA vectors; assay type: cell-based
Experimental: In the next step, the effect of miR-125a-5p on PC7 function was determined. First, the miR-125a-5p-overexpressing vector and its related mock plasmids were co-transfected with the pIRES vector (Invitrogen, USA), containing the full length of cDNA encoding the PCSK7 mRNA with the complete 3′-UTR in Huh7 cells. The western blot analysis was performed 48 hours after transfection. Thereafter, the impact of miR-125a-5p on the enzymatic function of PC7 was assessed by co-transfecting Huh7 cells with the miR-125a-5p-overexpressing vector, with that coding for the full length of PCSK7, and a plasmid encoding hTfR1 (Guillemot et al., 2013; Durand et al., 2020). […]
Subsequently, proteins were isolated with an ice-cold RIPA buffer (1×), comprising 50 mM of Tris hydrochloride (pH 8), 150 mM of sodium chloride, 0.1% sodium dodecyl sulfate, 1% Nonidet P40, 0.25% sodium deoxycholate, and a cocktail of protease inhibitors (Roche, Oakville, ON, Canada). […] Both PC7 and TfR1 were C-terminally tagged with V5 and detected with a V5-monoclonal antibody (Invitrogen) and membranes were incubated with appropriate primary and secondary antibodies, as reported (Guillemot et al., 2013). Subsequently, immunoreactive bands (the signal) were visualized with an enhanced chemiluminescent reaction kit (Bio-Rad, USA) and recorded via chemiluminescence. […]

[4] = tested on: human PCSK9; test: Western blot of PCSK9 protein in Huh7 cells co-transfected with miRNA vectors; assay type: cell-based; conditions: Huh7, selectivity control
Experimental: Western blot analysis was conducted to determine whether miR-125a-5p affected the functional activity of […] PC7 in Huh7 cells. A wild-type human PC7-overexpressing vector was co-transfected with pre-miR-125a-5p and pre-miR-224-5p-overexpressing plasmids in Huh7 cells. […] As control, a human PCSK9-overexpressing vector was co-transfected with miR-125a-5p and miR-224-5p vectors in Huh7 cells, whereby these miRNAs had no effect on the expression level of PCSK9 protein (not shown).

## miR-125a-5p: miRNA targeting PCSK7 3′-UTR and exons 14 and 15, overexpressed from pEGFP-C1 precursor vector (UCCCUGAGACCCUUUAACCUGUGA; miRNA expressed from a pEGFP-C1 precursor vector, further chemistry not given here)
[1]
  effect on expression of PCSK7 mRNA: did not reach statistical significance
[2]
  reduction in PCSK7 mRNA levels: ~25%
[3]; Huh7, 48 hours post-transfection, vs mock (pEGFP-C1) and miR-224-5p controls
  fall of overexpressed PC7 protein levels: ~80%
[3]; Huh7, PC7:miR-125a-5p DNA ratios 1:2, 1:3 and 1:5, all three ratios
  decrease of PC7 protein levels: > 80%
[4]
  expression level of PCSK9 protein: no effect
